# Reference: US9489013B2, “C6-azaspiro iminothiadiazine dioxides as bace inhibitors, compositions, and their use” (Merck Sharp & Dohme Corp., priority 2012, dated 2016)
# Like-named read-outs stand apart in the source and are kept apart here.
# Assays:
# [1] = target: soluble human BACE1 catalytic domain (Homo sapiens (Human), UniProt P56817); assay: BACE1 HTRF FRET Assay; assay type: biochemical; conditions: Ki calculated from IC50 using the Cheng-Prusoff equation; QSY7-APPswe-Eu substrate, pH 5.0
# soluble human BACE1 catalytic domain, sequence (P56817 75-416): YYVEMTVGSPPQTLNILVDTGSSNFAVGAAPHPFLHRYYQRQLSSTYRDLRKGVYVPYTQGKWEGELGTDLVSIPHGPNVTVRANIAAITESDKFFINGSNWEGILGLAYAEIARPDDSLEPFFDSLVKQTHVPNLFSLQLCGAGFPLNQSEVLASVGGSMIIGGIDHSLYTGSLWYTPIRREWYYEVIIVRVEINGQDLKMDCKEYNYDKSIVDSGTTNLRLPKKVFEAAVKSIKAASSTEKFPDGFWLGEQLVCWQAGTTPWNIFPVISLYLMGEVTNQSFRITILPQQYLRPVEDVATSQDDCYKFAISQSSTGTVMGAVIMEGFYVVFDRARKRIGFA
# Description: A homogeneous time-resolved FRET assay can be used to determine IC50 values for inhibitors of the soluble human BACE1 catalytic domain. […] This substrate contains an N-terminal QSY7 moiety that serves as a quencher of the C-terminal Europium fluorophore (620 nm Em). […] Inhibition of BACE cleavage of the QSY7-APP^swe-Eu substrate by inhibitors is manifested as a suppression of 620 nm fluorescence. […] The reactions are incubated at 30° C. for 1.5 hours. The 620 nm fluorescence is then read on a Rubystar HTRF plate reader (BMG Labtechnologies) using a 50 millisecond delay followed by a 400 millisecond acquisition time window. Inhibitor IC50 values are derived from non-linear regression analysis of concentration response curves.
# [2] = target: purified human autoBACE-2 (Homo sapiens (Human), UniProt Q9Y5Z0); assay: BACE-2 Assay (BACE-HTRF assay); assay type: biochemical; conditions: Ki calculated from IC50 using the Cheng-Prusoff equation, pH 5.0, read-out: BACE2 Ki
# purified human autoBACE-2, sequence (Q9Y5Z0 63-473 limits assumed): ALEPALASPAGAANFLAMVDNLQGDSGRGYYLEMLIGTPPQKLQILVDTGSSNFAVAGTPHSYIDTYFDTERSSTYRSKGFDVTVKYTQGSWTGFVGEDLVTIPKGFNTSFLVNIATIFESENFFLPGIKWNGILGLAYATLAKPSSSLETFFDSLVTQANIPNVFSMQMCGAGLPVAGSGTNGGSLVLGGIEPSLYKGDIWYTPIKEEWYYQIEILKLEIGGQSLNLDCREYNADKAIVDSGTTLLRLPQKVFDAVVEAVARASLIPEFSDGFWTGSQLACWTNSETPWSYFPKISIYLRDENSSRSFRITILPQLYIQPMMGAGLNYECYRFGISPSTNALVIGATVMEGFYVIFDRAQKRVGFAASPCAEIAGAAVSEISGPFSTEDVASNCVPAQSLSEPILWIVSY
# Description: Inhibitor IC50's at purified human autoBACE-2 are determined in a time-resolved endpoint proteolysis assay that measures hydrolysis of the QSY7-[…]-Eu-amide FRET peptide substrate (BACE-HTRF assay). […] Inhibitor compounds, prepared at 3× the desired final concentration in 1×BACE assay buffer (20 mM sodium acetate pH 5.0, 10% glycerol, 0.1% Brij-35) supplemented with 7.5% DMSO are pre-incubated with an equal volume of autoBACE-2 enzyme diluted in 1×BACE assay buffer (final enzyme concentration 1 nM) in black 384-well NUNC plates for 30 minutes at 30° C. […] DMSO is present at 5% final concentration in the assay. Following laser excitation of sample wells at 320 nm, the fluorescence signal at 620 nm is collected for 400 ms following a 50 μs delay on a RUBYstar HTRF plate reader (BMG Labtechnologies). Raw RFU data is normalized to maximum (1.0 nM BACE/DMSO) and minimum (no enzyme/DMSO) RFU values. […] The Ki values are calculated from the IC50 using the Cheng-Prusoff equation.
# [3] = QSY7-EISEVNLDAEFC-Eu-amide substrate
Structure (SMILES),Ki [1] [nM],"Ki [2, 3] [nM]",Ki ([2]; QSY7-[…]-Eu-amide substrate) [nM]
CN1C(=N)N[C@](C)(c2cc(NC(=O)c3ccc(F)cn3)ccc2F)[C@]2(CCN(Cc3cnn(C)c3)C2)S1(=O)=O [Example 40],4,10,
COc1ccc(C(=O)Nc2ccc(F)c([C@@]3(C)NC(=N)N(C)S(=O)(=O)[C@@]34CCN(CC3CCOC3)C4)c2)nc1 (stereo partly shown) [Example 9],1,2,
COc1ccc(C(=O)Nc2ccc(F)c([C@@]3(C)NC(=N)N(C)S(=O)(=O)[C@@]34CCN(Cc3cnco3)C4)c2)nc1 [Example 14],3,9,
CN1C(=N)N[C@](C)(c2cc(NC(=O)c3ccc(F)cn3)ccc2F)[C@@]2(CCN(S(=O)(=O)c3ccccc3)C2)S1(=O)=O [Example 91],16,6,
COc1ccc(C(=O)Nc2ccc(F)c([C@@]3(C)NC(=N)N(C)S(=O)(=O)[C@@]34CCN(CC3CC3)C4)c2)nc1 [Example 12],2,7,
COc1ccc(C(=O)Nc2ccc(F)c([C@@]3(C)NC(=N)N(C)S(=O)(=O)[C@@]34CCN(Cc3cncnc3)C4)c2)nc1 [Example 15],4,17,
CN1C(=N)N[C@](C)(c2cc(NC(=O)c3ccc(F)cn3)ccc2F)[C@]2(CCN(CC3CC3)C2)S1(=O)=O [Example 31],2,5,
COc1ccc(C(=O)Nc2ccc(F)c([C@@]3(C)NC(=N)N(C)S(=O)(=O)[C@@]34CCN(Cc3ccccn3)C4)c2)nc1 [Example 10],2,,
CN1C(=N)N[C@](C)(c2cc(NC(=O)c3ccc(F)cn3)ccc2F)[C@]2(CCN(Cc3cnco3)C2)S1(=O)=O [Example 30],4,5,
COc1ccc(C(=O)Nc2ccc(F)c([C@@]3(C)NC(=N)N(C)S(=O)(=O)[C@@]34CCN(CC3CC(OC)C3)C4)c2)nc1 (stereo partly shown) [Example 17],4,,
CCCCN1CC[C@@]2(C1)[C@@](C)(c1cc(NC(=O)c3ccc(F)cn3)ccc1F)NC(=N)N(C)S2(=O)=O [Example 39],2,3,
COc1ccc(C(=O)Nc2ccc(F)c([C@@]3(C)NC(=N)N(C)S(=O)(=O)[C@@]34CCN(Cc3cccnc3)C4)c2)nc1 [Example 11],2,12,
COCC(=O)Nc1ccc(F)c([C@@]2(C)NC(=N)N(C)S(=O)(=O)[C@@]23CCN(Cc2ccccc2)C3)c1 [Example 96],22,,25
COC1CC(CN2CC[C@@]3(C2)[C@@](C)(c2cc(NC(=O)c4ccc(F)cn4)ccc2F)NC(=N)N(C)S3(=O)=O)C1 (stereo partly shown) [Example 34],6,10,
CN1C(=N)N[C@](C)(c2cc(NC(=O)c3ccc(F)cn3)ccc2F)[C@]2(CCN(Cc3cocn3)C2)S1(=O)=O [Example 37],2,5,

# Further lines, results first:
Ki [1] [nM],"Ki [2, 3] [nM]",Ki ([2]; QSY7-[…]-Eu-amide substrate) [nM],Structure (SMILES)
8,9,,CN1C(=N)N[C@](C)(c2cc(NC(=O)c3ccc(F)cn3)ccc2F)[C@]2(CCN(Cc3ccncc3)C2)S1(=O)=O [Example 29]
4,10,,CN1C(=N)N[C@](C)(c2cc(NC(=O)c3ccc(F)cn3)ccc2F)[C@]2(CCN(S(=O)(=O)CC3CCCO3)C2)S1(=O)=O (stereo partly shown) [Example 82]
3,5,,CN1C(=N)N[C@](C)(c2cc(NC(=O)c3ccc(F)cn3)ccc2F)[C@]2(CCN(Cc3cscn3)C2)S1(=O)=O [Example 33]
4,,,COc1ccc(C(=O)Nc2ccc(F)c([C@@]3(C)NC(=N)N(C)S(=O)(=O)[C@@]34CCN(Cc3cnn(C)c3)C4)c2)nc1 [Example 16]
3,,,COc1ccc(C(=O)Nc2ccc(F)c([C@@]3(C)NC(=N)N(C)S(=O)(=O)[C@@]34CCN(Cc3cscn3)C4)c2)nc1 [Example 8]
4,7,,CN1C(=N)N[C@](C)(c2cc(NC(=O)c3ccc(F)cn3)ccc2F)[C@]2(CCN(Cc3cncnc3)C2)S1(=O)=O [Example 38]
2,6,,CN1C(=N)N[C@](C)(c2cc(NC(=O)c3ccc(F)cn3)ccc2F)[C@]2(CCN(Cc3cccnc3)C2)S1(=O)=O [Example 35]
